“Also recorded” adds a separate entry of the source.
Key:
[1] = normal young and elderly individuals; cited from earlier work
HREs [2] = assay: Tube formation assay (Matrigel); format: cell-based, human; details: 24 h of treatment with CM of modulated MSCs
Procedure: Corning Matrigel Matrix (10 mg protein/mL) Growth Factor Reduced (Corning Inc., Cat. No. 354230, Corning, NY, USA) was used for tube formation assay. Then, 289 μL of cold (4° C.) Matrigel per well was added into chilled 24-well flat-bottom tissue culture plate (USA Scientific Inc., Ocala, FL, USA) and polymerized for 1 h at 37° C., 5% CO2 incubator. HREs were trypsinized and separated into different groups. Each group of cells was centrifuged and cell pellets were resuspended in regular media without FBS, same media with 1:1 mixture of FBS free regular media and CM of vehicle- or treated-MSCs. Then 300 μL of the cell suspension was added onto each well of Matrigel coated 24-well culture plate and incubated at 37° C. After 24-h, cells forming tube structures were analyzed by microscopy. Cells in five replicate fields of triplicate wells were digitally photographed with an EVOS microscope (Thermo Fisher Scientific Inc., Waltham, MA, USA). The images for Tube formation assay were analyzed using Angiogenesis analyzer for imageJ. An area of 1.8 mm2 from each well was analyzed with imageJ ver. 1.53c, and 3 wells were analyzed per group. […] The total tubular length was calculated as the average of the total tubule length from three wells, five random fields per well.

p75^NTR = target: T1, p75^NTR (Mus musculus, UniProt Q9Z0W1); assay: Visual acuity test (cue version of Morris water maze) post retinal I/R; format: in vivo; details: WT mice
T1 construct: Interventional treatment with the p75^NTR modulator LM11A-31 (50 mg/Kg, po, QOD) for 12 weeks; from tissue; host or cells: living STZ-diabetic mice (kidney, urine, blood, body weight)
T1 sequence (Q9Z0W1 32-427): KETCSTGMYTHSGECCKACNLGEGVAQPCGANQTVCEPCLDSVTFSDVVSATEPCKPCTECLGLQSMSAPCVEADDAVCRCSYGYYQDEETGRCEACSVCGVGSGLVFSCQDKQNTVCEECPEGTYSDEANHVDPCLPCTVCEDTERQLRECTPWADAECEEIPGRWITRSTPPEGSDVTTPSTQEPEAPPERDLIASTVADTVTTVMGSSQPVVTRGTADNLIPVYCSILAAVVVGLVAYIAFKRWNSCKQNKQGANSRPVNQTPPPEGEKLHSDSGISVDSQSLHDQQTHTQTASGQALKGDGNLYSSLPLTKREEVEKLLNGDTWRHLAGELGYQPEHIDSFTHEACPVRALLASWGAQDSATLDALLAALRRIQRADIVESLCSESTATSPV
Procedure: For surgeries, mice were anesthetized with intraperitoneal ketamine (50 mg/kg; Hospira, Inc., Lake Forest, IL, USA) and xylazine (10 mg/kg; Akorn, Decatur, IL, USA). Retinal ischemia/reperfusion (I/R) was performed as described previously in Coucha, M. et al. Modulating Expression of Thioredoxin Interacting Protein (TXNIP) Prevents Secondary Damage and Preserves Visual Function in a Mouse Model of Ischemia/Reperfusion. Int. J. Mol. Sci. 2019, 20. Briefly, pupils were dilated with 1% Atropine Sulfate (Akorn, Inc., Lake Forest, IL, USA). The anterior chamber was cannulated with a 32 gauge needle attached to a line from a saline reservoir at a height calibrated to yield 120 mmHg. The intraocular pressure (IOP) was elevated to 120 mmHg for 45-60 min. I/R injury and choroidal nonperfusion was evident by whitening of the anterior segment of the globe and blanching of the episcleral veins. During infusion, topical anesthesia (0.5% tetracaine HCL, Bausch & Lomb, NJ, USA) was applied to the cornea. After ischemia, the needle was immediately withdrawn, allowing for rapid reperfusion, IOP was normalized, and reflow of the retinal vasculature was confirmed by observation of the episcleral veins. […]
Visual acuity was assessed behaviorally by training and testing mice on the “cue” version of the Morris water maze task. […]

[3] = cited from earlier work
p75NTR = details: cultures of p75NTR−/− neurons; cited from earlier work
[4] = cited from earlier work; remark: listed apart in the source
HREs [5] = assay: Cell migration assay (wounded HREs, CM of treated MSCs); format: cell-based, human; details: 12 h of treatment with CM of modulated MSCs
Procedure: HREs were grown to confluence and then were wound with a single sterile cell scraper of constant diameter. Cells were divided into three groups, treated with regular media without FBS, and 1:1 mixture of FBS-free regular media and CM of vehicle- or treated-MSCs. Images of wounded areas were taken immediately after adding the treatment using a phase contrast microscope, and baseline were marked under the cell culture dish with blue marker. After 12 h, images of same field were taken and % cell migration was calculated. Each condition was verified in triplicate and was repeated using independent cultures.

## CCC(C)C(N)C(=O)NCCN1CCOCC1 (stereo not shown) [LM11A-31, 2-amino-3-methyl-pentanoic acid [2-morpholin-4-yl-ethyl]-amide]
[1]
  phase I safety trial outcome: successfully completed
HREs [2]
  number of junction points, increase: 1.5 Fold
  tube length, increase: 1.4 Fold
p75^NTR; I/R both eyes, 50 mg/kg/day oral gavage every other day from 48 h post I/R, 6, 9, 12, 15 days post I/R, 50 mg/kg/day
  time to reach the platform (visual-clue water maze): significantly ameliorated; also recorded: attenuated
p75^NTR; I/R, 50 mg/kg/day oral gavage every other day
  area under the curve (AUC) of time to platform after 15 days: normalized
[3]; 50 mg/kg, oral administration
  blood-brain barrier crossing: cross the blood-brain barrier
[3]; in vivo, po
  oral bioavailability: orally bioavailable
p75NTR
  specificity to p75NTR: protective activity: complete loss of its protective activity
[4]
  water solubility: water-soluble
HREs [5]
  HREs migration, increase: 1.34 Fold
